Tests used:
[1] = Half life at 1 uM in the presence of 100 uM reduced glutathione in H2O-Acetonitrile (1:1); type: ADME; conditions: reduced glutathione solution in H2O-acetonitrile (1:1)
[2] = Half life at 10 uM in the presence of 100 uM reduced glutathione in H2O-Acetonitrile (1:1); type: ADME; conditions: reduced glutathione solution in H2O-acetonitrile (1:1)
[3] = molecular target: T1, Vascular endothelial growth factor receptor 2 (Homo sapiens, UniProt P35968); assay: Inhibition of poly(Glu4-Tyr)peptide phosphorylation by recombinant VEGFR2 at 10 uM ATP
T1 sequence (P35968 whole entry): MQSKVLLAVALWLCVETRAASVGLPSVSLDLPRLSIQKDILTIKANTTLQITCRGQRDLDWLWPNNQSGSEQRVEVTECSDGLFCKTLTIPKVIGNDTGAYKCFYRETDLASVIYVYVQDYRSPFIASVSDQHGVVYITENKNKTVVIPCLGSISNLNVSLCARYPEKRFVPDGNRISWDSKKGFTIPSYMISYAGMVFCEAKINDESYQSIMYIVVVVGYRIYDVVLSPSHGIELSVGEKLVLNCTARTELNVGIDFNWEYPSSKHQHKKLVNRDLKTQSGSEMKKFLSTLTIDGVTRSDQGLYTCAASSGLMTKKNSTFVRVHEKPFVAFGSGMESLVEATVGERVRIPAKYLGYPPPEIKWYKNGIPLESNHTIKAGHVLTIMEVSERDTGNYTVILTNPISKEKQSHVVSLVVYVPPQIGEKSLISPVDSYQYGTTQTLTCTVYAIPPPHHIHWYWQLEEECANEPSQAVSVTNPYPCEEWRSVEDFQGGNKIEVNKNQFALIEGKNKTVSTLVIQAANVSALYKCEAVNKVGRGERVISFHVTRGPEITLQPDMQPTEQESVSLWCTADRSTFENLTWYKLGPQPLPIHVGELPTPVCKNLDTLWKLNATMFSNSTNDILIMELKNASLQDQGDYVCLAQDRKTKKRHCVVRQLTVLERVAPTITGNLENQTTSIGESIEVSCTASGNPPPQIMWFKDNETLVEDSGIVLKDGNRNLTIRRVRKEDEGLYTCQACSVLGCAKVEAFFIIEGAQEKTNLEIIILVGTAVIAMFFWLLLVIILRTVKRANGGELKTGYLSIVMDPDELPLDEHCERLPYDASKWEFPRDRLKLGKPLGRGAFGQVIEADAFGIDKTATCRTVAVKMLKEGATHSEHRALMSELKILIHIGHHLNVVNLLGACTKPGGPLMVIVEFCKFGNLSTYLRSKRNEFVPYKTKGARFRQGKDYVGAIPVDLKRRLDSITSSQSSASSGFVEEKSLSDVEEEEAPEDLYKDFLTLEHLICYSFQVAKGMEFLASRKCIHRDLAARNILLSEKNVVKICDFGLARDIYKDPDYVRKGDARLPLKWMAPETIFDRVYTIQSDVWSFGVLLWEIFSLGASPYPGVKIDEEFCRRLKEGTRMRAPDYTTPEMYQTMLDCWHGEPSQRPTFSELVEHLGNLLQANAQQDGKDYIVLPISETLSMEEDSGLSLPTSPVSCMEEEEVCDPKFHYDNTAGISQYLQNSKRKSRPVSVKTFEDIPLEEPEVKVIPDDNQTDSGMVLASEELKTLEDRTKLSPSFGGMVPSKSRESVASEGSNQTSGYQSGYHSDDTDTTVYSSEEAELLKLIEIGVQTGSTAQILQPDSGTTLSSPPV

[4] = molecular target: T1, Vascular endothelial growth factor receptor 2; assay: Inhibition of poly(Glu4-Tyr)peptide phosphorylation by recombinant VEGFR2 at 10 uM ATP and in presence of 5% mouse plasma; type: cell-free
[5] = molecular target: T1, Vascular endothelial growth factor receptor 2; assay: Inhibition of poly(Glu4-Tyr)peptide phosphorylation by recombinant VEGFR2 at 10 uM ATP and in presence of 100 uM glutathione
[6] = molecular target: T1, Vascular endothelial growth factor receptor 2; assay: Inhibitory activity against VEGF stimulated autophosphorylation of VEGFR2 expressed in KDR15 cells; type: cell-based

## COCCOc1cc2ncnc(NC3=CC(=O)C(Oc4ccc(-n5ccnc5)cc4)=CC3=O)c2cc1OC
[1]
  half-life at 1 µM: < 0.02 h
[2]
  half-life at 10 µM: < 0.02 h

## COCCOc1cc2ncnc(NC3=CC(=O)C(OC)=CC3=O)c2cc1OC
[1]
  half-life at 1 µM: 68 h
[2]
  half-life at 10 µM: 80 h

## COCCOc1cc2ncnc(NC3=CC(=O)C(Cl)=CC3=O)c2cc1OC
[1]
  half-life at 1 µM: < 0.02 h
[2]
  half-life at 10 µM: < 0.02 h

## COCCOc1cc2ncnc(NC3=CC(=O)C(OCc4cccc(F)c4)=CC3=O)c2cc1OC
[3]
  IC50: 31.2 nM
[4]
  IC50: 256 nM
[5]
  IC50: 41.9 nM

## COCCOc1cc2ncnc(NC3=CC(=O)C(SC)=CC3=O)c2cc1OC
[1]
  half-life at 1 µM: 2 h
[2]
  half-life at 10 µM: 3 h

## COCCOc1cc2ncnc(NC3=CC(=O)C(NCC(C)O)=CC3=O)c2cc1OC (configuration not stated)
[3]
  IC50: > 1000 nM
[4]
  IC50: > 1000 nM
[5]
  IC50: > 1000 nM

## COCCOc1cc2ncnc(NC3=C(Sc4ccccn4)C(=O)C=C(OC)C3=O)c2cc1OC
[3]
  IC50: > 1000 nM
[4]
  IC50: > 1000 nM
[5]
  IC50: > 1000 nM

## COCCOc1cc2ncnc(NC3=CC(=O)C(OC(CF)CF)=CC3=O)c2cc1OC
[1]
  half-life at 1 µM: 11 h
[2]
  half-life at 10 µM: 15 h

## CCOC1=CC(=O)C(Nc2ncnc3cc(OCCOC)c(OC)cc23)=CC1=O
[6]
  IC50: > 1000 nM
[3]
  IC50: > 1000 nM
[1]
  half-life at 1 µM: 62 h
[2]
  half-life at 10 µM: 72 h
[4]
  IC50: > 1000 nM
[5]
  IC50: > 1000 nM

## COCCOc1cc2ncnc(NC3=CC(=O)C(OC)=C(Cl)C3=O)c2cc1OC
[1]
  half-life at 1 µM: < 0.5 h
[2]
  half-life at 10 µM: 0.5 h

## COCCOc1cc2ncnc(NC3=CC(=O)C(N4CCN(Cc5ccccc5)CC4)=CC3=O)c2cc1OC
[1]
  half-life at 1 µM: 73 h
[2]
  half-life at 10 µM: 85 h

## COCCOc1cc2ncnc(NC3=CC(=O)C(OC(C)C)=CC3=O)c2cc1OC
[1]
  half-life at 1 µM: 213 h
[2]
  half-life at 10 µM: 227 h

## COCCOc1cc2ncnc(NC3=CC(=O)C(Oc4ccccc4)=CC3=O)c2cc1OC
[1]
  half-life at 1 µM: < 0.02 h
[2]
  half-life at 10 µM: < 0.02 h

## COCCOc1cc2ncnc(NC3=CC(=O)C(N(C)c4ccccc4)=CC3=O)c2cc1OC
[1]
  half-life at 1 µM: 341 h
[2]
  half-life at 10 µM: 295 h

## COCCOc1cc2ncnc(NC3=CC(=O)C(OCc4ccccc4)=CC3=O)c2cc1OC
[3]
  IC50: 43 nM
[1]
  half-life at 1 µM: 55 h
[2]
  half-life at 10 µM: 54 h
[4]
  IC50: 366 nM
[5]
  IC50: 50.3 nM

## COCCOc1cc2ncnc(NC3=CC(=O)C(N(C)C)=CC3=O)c2cc1OC
[1]
  half-life at 1 µM: 160 h
[2]
  half-life at 10 µM: 601 h

— ChEMBL document CHEMBL1141211, “2-(Quinazolin-4-ylamino)-[1,4]benzoquinones as covalent-binding, irreversible inhibitors of the kinase domain of vascular endothelial growth factor receptor-2” (J Med Chem, 2005)
